# From patent US10000471B2, “Pyrazole P38 map kinase inhibitors” (Respivert Limited, priority 2010, dated 2018)
# Legend:
# [1] = biological target: T1, p38 MAPKα isoform (MAPK14) (Homo sapiens, UniProt Q16539); test: Enzyme inhibition assay (FRET, Z-LYTE), p38 MAPKα via MAPKAP-K2 activation; format: biochemical; conditions: read-out: Enzyme Inhibition IC50 p38α
# T1 construct: purchased Invitrogen
# In short: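 Recombinant p38 MAPKα was preincubated with compound for 2 h at RT. Its activity was measured indirectly through activation/phosphorylation of downstream MAPKAP-K2, with a Z-LYTE FRET peptide read-out (coumarin/fluorescein ratio) after a 1 h development step. IC50 came from concentration-response curves of percent inhibition versus an uninhibited control.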
# [2] = biological target: T2, p38 MAPKγ (MAPK12) (Homo sapiens, UniProt P53778); test: Enzyme inhibition assay (FRET, Z-LYTE), p38 MAPKγ; format: biochemical; conditions: read-out: Enzyme Inhibition IC50 p38γ
# T2 construct: purchased Invitrogen
# T2 sequence (P53778 1-367): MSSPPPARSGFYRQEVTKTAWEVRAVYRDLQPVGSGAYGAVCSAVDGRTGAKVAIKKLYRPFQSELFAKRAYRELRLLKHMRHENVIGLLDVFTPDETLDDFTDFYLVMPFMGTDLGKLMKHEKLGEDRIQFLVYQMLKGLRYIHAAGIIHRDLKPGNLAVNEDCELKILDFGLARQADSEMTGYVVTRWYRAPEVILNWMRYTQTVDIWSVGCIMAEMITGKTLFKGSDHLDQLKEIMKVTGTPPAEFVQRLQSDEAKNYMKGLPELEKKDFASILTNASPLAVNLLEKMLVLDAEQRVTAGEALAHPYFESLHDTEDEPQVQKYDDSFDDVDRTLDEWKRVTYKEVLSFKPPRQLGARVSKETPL
# In short: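 Recombinant phosphorylated p38 MAPKγ preincubated 2 h at RT with compound in HEPES buffer, then 2 μM FRET peptide and 100 μM ATP added for 1 h; protease development 1 h. Coumarin/fluorescein emission ratio gave phosphorylation; IC50 from concentration-response versus uninhibited control.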
# [3] = test system: TNFα release in THP-1 cells; test: LPS-induced TNFα release in THP-1 cells; format: cell-based, human; conditions: Homo sapiens
# In short: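 Human monocytic THP-1 cells stimulated with 3 μg/mL E. coli LPS for 4 hr; supernatant TNFα measured by sandwich ELISA. Inhibition at each concentration versus vehicle control, IC50 from concentration-response curve.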
# [4] = test system: TNFα release in d-U937 cells; test: LPS-induced TNFα release in d-U937 cells; format: cell-based, human; conditions: Homo sapiens, dU937, relative to 10 μg/mL BIRB796, read-out: LPS/TNFα REC50 d-U937
# In short: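 PMA-differentiated (100 ng/ml, 48–72 hr) U937 macrophage-type cells pre-incubated 2 hr with compound, then stimulated 4 hr with 0.1 μg/mL E. coli O111:B4 LPS; supernatant TNFα and IL-8 measured by sandwich ELISA. TNFα inhibition expressed relative to 10 μg/mL BIRB796, giving REC50; IL-8 inhibition versus vehicle, giving IC50.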
# [5] = test system: Balb/c mice; test: LPS-induced neutrophil accumulation in mice; format: in vivo; conditions: for Neutrophil numbers in BAL / Neutrophil numbers in BAL (% inhibition): intra tracheal
# Method: LPS-Induced Neutrophil Accumulation in Mice
# Non-fasted Balb/c mice were dosed by the intra tracheal route with either vehicle, or the test substance at the indicated times (within the range 2-8 hr) before stimulation of the inflammatory response by application of an LPS challenge. At T=0, mice were placed into an exposure chamber and exposed to LPS. After a further 8 hr the animals were anesthetized, their tracheas cannulated and BALF extracted by infusing and then withdrawing from their lungs 1.0 mL of PBS via the tracheal catheter. Total and differential white cell counts in the BALF samples were measured using a Neubaur haemocytometer. Cytospin smears of the BALF samples were prepared by centrifugation at 200 rpm for 5 min at RT and stained using a DiffQuik stain system (Dade Behring). Cells were counted using oil immersion microscopy.
# [6] = test system: A/J mice; test: Cigarette smoke model; format: in vivo; conditions: for inhibition of both macrophage and neutrophil accumulation into the BALF: animals previously exposed to cigarette smoke; for Cell numbers in BAL (% Inhibition), Macrophages / Cell numbers in BAL (% Inhibition), Neutrophils / Cell numbers in BAL, Macrophages / Cell numbers in BAL, Neutrophils: Table 8
# Method: A/J mice (males, 5 weeks old) were exposed to cigarette smoke (4% cigarette smoke, diluted with air) for 30 min/day for 11 days using a Tobacco Smoke Inhalation Experiment System for small animals (Model SIS-CS; Sibata Scientific Technology, Tokyo, Japan). Test substances were administered intra-nasally (35 μL of solution in 50% DMSO/PBS) twice daily for 3 days after the final cigarette smoke exposure. At 12 hr after the last dosing, each of the animals was anesthetized, the trachea cannulated and bronchoalveolar lavage fluid (BALF) was collected. The numbers of alveolar macrophages and neutrophils were determined by FACS analysis (EPICS® ALTRA II, Beckman Coulter, Inc., Fullerton, Calif., USA) using anti-mouse MOMA2 antibody (macrophage) or anti-mouse 7/4 antibody (neutrophil).
# The data for cell numbers are shown as the mean±SEM.
# [7] = Cigarette smoke + 0.064 μg/mL, intra-nasal twice daily 3 days
# [8] = Table 7, Cigarette smoke + 8.0 μg/mL
# [9] = Table 7, Cigarette smoke + 40 μg/mL
# [10] = Table 7, Cigarette smoke + 200 μg/mL
# [11] = Table 6, 0.2 mg/mL, 8 h pre-dose
# T1 sequence (Q16539 whole entry, canonical isoform): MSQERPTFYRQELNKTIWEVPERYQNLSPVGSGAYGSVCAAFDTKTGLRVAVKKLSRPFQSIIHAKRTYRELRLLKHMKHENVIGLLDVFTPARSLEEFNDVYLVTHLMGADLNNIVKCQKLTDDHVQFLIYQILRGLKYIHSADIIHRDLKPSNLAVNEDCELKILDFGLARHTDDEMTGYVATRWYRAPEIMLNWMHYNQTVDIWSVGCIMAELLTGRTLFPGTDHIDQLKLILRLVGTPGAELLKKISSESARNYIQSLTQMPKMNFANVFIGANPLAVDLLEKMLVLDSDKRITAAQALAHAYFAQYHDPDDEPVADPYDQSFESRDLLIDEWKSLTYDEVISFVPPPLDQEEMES
smiles,measurement,setting,value
"CNC(=O)Nc1cc(Oc2ccc(NC(=O)Nc3cc(C(C)(C)C)nn3-c3ccc(OC)cc3)c(Cl)c2Cl)ccn1 [Example 9, N-Methyl-N′-4-(4-(3-(3-tert-butyl-1-p-anisyl-1H-pyrazol-5-yl)ureido)-2,3-dichlorophen-1-yloxy)pyridin-2-ylurea]",IC50,[1],19.1 nM
same,IC50,[2],67.2 nM
same,IC50,[3],1 nM
same,EC50,[4],0.2 nM
same,Neutrophil numbers in BAL,"[5]; 0.05 mg/mL, 2 hr pre-dose",14.98 ± 2.25 × 10^5/mL
same,Neutrophil numbers in BAL (% inhibition),"[5]; 0.05 mg/mL, 2 hr pre-dose",11%
same,Neutrophil numbers in BAL,"[5]; 0.2 mg/mL, 2 hr pre-dose",8.75 ± 1.38 × 10^5/mL
same,Neutrophil numbers in BAL (% inhibition),"[5]; 0.2 mg/mL, 2 hr pre-dose",48%
same,Neutrophil numbers in BAL,"[5]; 0.2 mg/mL, 8 h pre-dose",13.44 ± 2.03 × 10^5/mL
same,Neutrophil numbers in BAL (% inhibition),"[5]; 0.2 mg/mL, 8 h pre-dose",20%
same,Neutrophil numbers in BAL,"[5]; 1.0 mg/mL, 2 hr pre-dose",5.80 ± 1.18 × 10^5/mL
same,Neutrophil numbers in BAL (% inhibition),"[5]; 1.0 mg/mL, 2 hr pre-dose",66%
same,inhibition of neutrophil accumulation into the BALF,[5]; administered 2 hr prior to LPS challenge,dose-dependent inhibition
same,effects of treatment on neutrophil accumulation into the BALF,[5]; dosed 8 hr prior to the endotoxin challenge,sustained and still detectable
same,"Cell numbers in BAL (% Inhibition), Macrophage",[6]; [7],19%
same,"Cell numbers in BAL (% Inhibition), Neutrophil",[6]; [7],3%
same,"Cell numbers in BAL, Macrophage",[6]; [7],16.2 ± 1.7 × 10^4/mL
same,"Cell numbers in BAL, Neutrophil",[6]; [7],17.7 ± 2.5 × 10^4/mL
same,"Cell numbers in BAL (% Inhibition), Macrophage",[6]; Cigarette smoke + 0.32 μg/mL,17%
same,"Cell numbers in BAL (% Inhibition), Neutrophil",[6]; Cigarette smoke + 0.32 μg/mL,16%
same,"Cell numbers in BAL, Macrophage",[6]; Cigarette smoke + 0.32 μg/mL,16.5 ± 2.4 × 10^4/mL
same,"Cell numbers in BAL, Neutrophil",[6]; Cigarette smoke + 0.32 μg/mL,15.5 ± 0.47 × 10^4/mL
same,"Cell numbers in BAL (% Inhibition), Macrophage",[6]; Cigarette smoke + 1.6 μg/mL,19%
same,"Cell numbers in BAL (% Inhibition), Neutrophil",[6]; Cigarette smoke + 1.6 μg/mL,21%
same,"Cell numbers in BAL, Macrophage",[6]; Cigarette smoke + 1.6 μg/mL,16.2 ± 1.3 × 10^4/mL
same,"Cell numbers in BAL, Neutrophil",[6]; Cigarette smoke + 1.6 μg/mL,14.7 ± 1.6 × 10^4/mL
same,"Cell numbers in BAL (% Inhibition), Macrophage",[6]; [8],39%
same,"Cell numbers in BAL (% Inhibition), Neutrophil",[6]; [8],29%
same,"Cell numbers in BAL, Macrophage",[6]; [8],13.1 ± 1.2 × 10^4/mL
same,"Cell numbers in BAL, Neutrophil",[6]; [8],13.4 ± 1.4 × 10^4/mL
same,"Cell numbers in BAL (% Inhibition), Macrophage",[6]; [9],61%
same,"Cell numbers in BAL (% Inhibition), Neutrophil",[6]; [9],42%
same,"Cell numbers in BAL, Macrophage",[6]; [9],9.9 ± 1.6 × 10^4/mL
same,"Cell numbers in BAL, Neutrophil",[6]; [9],11.2 ± 2.1 × 10^4/mL
same,"Cell numbers in BAL (% Inhibition), Macrophage",[6]; [10],85%
same,"Cell numbers in BAL (% Inhibition), Neutrophil",[6]; [10],72%
same,"Cell numbers in BAL, Macrophage",[6]; [10],6.1 ± 0.93 × 10^4/mL
same,"Cell numbers in BAL, Neutrophil",[6]; [10],6.3 ± 0.79 × 10^4/mL
same,inhibition of both macrophage and neutrophil accumulation into the BALF,[6],dose-dependent inhibition
"COc1ccc(-n2nc(C(C)(C)C)cc2NC(=O)Nc2ccc(Oc3ccnc(NC(=O)N4CCCC4)c3)c(Cl)c2Cl)cc1 [Example 76, N-(4-(4-(3-(3-(tert-butyl)-1-(4-methoxyphenyl)-1H-pyrazol-5-yl)ureido)-2,3-dichlorophenoxy)pyridin-2-yl)pyrrolidine-1-carboxamide]",IC50,[1],21 nM
same,IC50,[2],134 nM
same,IC50,[3],0.6 nM
same,EC50,[4],0.9 nM
same,% inhibition of Influx,[5]; [11],8%
same,Neutrophil numbers in BAL 8 h pre-dose,[5]; [11],12.94 ± 2.41 × 10^5/mL
same,inhibitory effects versus neutrophil influx into the BALF,[5]; dosed 8 hr before the inflammatory stimulus,inhibitory effects
same,"Cell numbers in BAL (% Inhibition), Macrophages",[6]; Cigarette smoke + 8.0 μg/mL,57%
same,"Cell numbers in BAL (% Inhibition), Neutrophils",[6]; Cigarette smoke + 8.0 μg/mL,52%
same,"Cell numbers in BAL, Macrophages",[6]; Cigarette smoke + 8.0 μg/mL,8.5 ± 0.35 × 10^4/mL
same,"Cell numbers in BAL, Neutrophils",[6]; Cigarette smoke + 8.0 μg/mL,9.6 ± 0.48 × 10^4/mL
same,"Cell numbers in BAL (% Inhibition), Macrophages",[6]; Cigarette smoke + 40 μg/mL,84%
same,"Cell numbers in BAL (% Inhibition), Neutrophils",[6]; Cigarette smoke + 40 μg/mL,66%
same,"Cell numbers in BAL, Macrophages",[6]; Cigarette smoke + 40 μg/mL,5.3 ± 0.36 × 10^4/mL
same,"Cell numbers in BAL, Neutrophils",[6]; Cigarette smoke + 40 μg/mL,7.4 ± 0.76 × 10^4/mL
same,"Cell numbers in BAL (% Inhibition), Macrophages",[6]; Cigarette smoke + 200 μg/mL,97%
same,"Cell numbers in BAL (% Inhibition), Neutrophils",[6]; Cigarette smoke + 200 μg/mL,86%
same,"Cell numbers in BAL, Macrophages",[6]; Cigarette smoke + 200 μg/mL,3.6 ± 0.39 × 10^4/mL
same,"Cell numbers in BAL, Neutrophils",[6]; Cigarette smoke + 200 μg/mL,4.0 ± 0.49 × 10^4/mL
same,inhibition of both macrophage and neutrophil accumulation into the BALF,[6],dose-dependent inhibition
